US10618918B2, “Substituted boronic acids as antimicrobials” (priority 2015, dated 2020)

Experiments:
[1] = system: KP1004 KPC-2; test: Biapenem potentiation (MPC@1), strain KP1004 KPC-2; type: cell-based; settings: minimum BLI concentration inhibiting growth with biapenem 1 μg/mL; tested up to 40 μg/mL
Protocol: (§1) Biapenem was present in the test medium at 1 μg/mL. […] Table 3 summarizes the BLI potency of biapenem potentiation (MPC@1) for two strains overexpressing class A (KPC) and class D (OXA-48) carbapenemases. Biapenem MIC for each strain is also shown.

[2] = system: KP1086 OXA-48; test: Biapenem potentiation (MPC@1), strain KP1086 OXA-48; type: cell-based; settings: minimum BLI concentration inhibiting growth with biapenem 1 μg/mL; tested up to 40 μg/mL
Protocol: as §1

[3] = system: AB1053 OXA-72; test: Meropenem potentiation (MPC@8), strain AB1053 OXA-72; type: cell-based, Acinetobacter baumannii; settings: minimum BLI concentration inhibiting growth with meropenem 8 μg/mL; tested up to 20 μg/mL
[4] = system: AB1054 OXA-23; test: Meropenem potentiation (MPC@8), strain AB1054 OXA-23; type: cell-based, Acinetobacter baumannii; settings: minimum BLI concentration inhibiting growth with meropenem 8 μg/mL; tested up to 20 μg/mL
[5] = target: T1, purified class A, C and D enzymes (β-lactamases) (Acinetobacter baumannii, UniProt Q9L4P2); test: biochemical; type: biochemical; settings: purified OXA-23; nitrocefin (NCF) as reporter substrate
T1 construct: rows headed: Ki (OXA-23, NCF), uM; other: purified OXA-23; nitrocefin (NCF) as reporter substrate
T1 sequence (Q9L4P2 whole entry): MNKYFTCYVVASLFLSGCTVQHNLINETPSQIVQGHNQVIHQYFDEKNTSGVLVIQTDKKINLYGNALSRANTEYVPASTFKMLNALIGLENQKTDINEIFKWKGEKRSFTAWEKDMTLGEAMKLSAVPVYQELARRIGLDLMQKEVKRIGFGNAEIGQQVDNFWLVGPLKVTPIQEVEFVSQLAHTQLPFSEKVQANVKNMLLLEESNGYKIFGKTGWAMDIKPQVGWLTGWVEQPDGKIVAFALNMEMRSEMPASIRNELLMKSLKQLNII

[6] = target: purified class A, C and D enzymes (β-lactamases) (Enterobacter cloacae, UniProt P05364); test: biochemical; type: biochemical
Sequence of purified class A, C and D enzymes (β-lactamases) (Enterobacter cloacae, UniProt P05364) (P05364 21-381): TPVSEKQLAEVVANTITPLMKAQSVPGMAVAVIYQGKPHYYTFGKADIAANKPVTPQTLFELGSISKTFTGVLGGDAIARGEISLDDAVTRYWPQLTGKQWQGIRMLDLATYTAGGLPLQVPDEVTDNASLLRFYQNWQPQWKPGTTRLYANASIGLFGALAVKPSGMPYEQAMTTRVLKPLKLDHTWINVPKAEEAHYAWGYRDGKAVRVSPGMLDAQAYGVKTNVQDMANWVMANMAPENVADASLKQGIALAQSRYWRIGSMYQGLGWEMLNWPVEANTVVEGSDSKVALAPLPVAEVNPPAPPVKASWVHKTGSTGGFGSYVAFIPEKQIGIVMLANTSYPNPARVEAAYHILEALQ

[7] = target: purified class A, C and D enzymes (β-lactamases) (Escherichia coli, UniProt Q9L5C7); test: biochemical; type: biochemical; settings: purified CTX-M-14; nitrocefin (NCF) as reporter substrate
Sequence of purified class A, C and D enzymes (β-lactamases) (Escherichia coli, UniProt Q9L5C7) (Q9L5C7 entry or part of it): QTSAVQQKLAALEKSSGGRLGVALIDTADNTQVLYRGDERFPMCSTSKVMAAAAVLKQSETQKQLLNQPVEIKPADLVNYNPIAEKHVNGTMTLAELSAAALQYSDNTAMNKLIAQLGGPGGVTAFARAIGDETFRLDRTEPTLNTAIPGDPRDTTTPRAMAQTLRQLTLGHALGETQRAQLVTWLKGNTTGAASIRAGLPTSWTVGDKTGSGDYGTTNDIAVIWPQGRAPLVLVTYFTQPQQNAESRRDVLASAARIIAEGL

[8] = target: purified class A, C and D enzymes (β-lactamases) (Klebsiella pneumoniae, UniProt Q6XEC0); test: biochemical; type: biochemical; settings: purified OXA-48; nitrocefin (NCF) as reporter substrate
[9] = target: purified class A, C and D enzymes (β-lactamases) (Klebsiella pneumoniae, UniProt Q9F663); test: biochemical; type: biochemical; settings: purified KPC-2; nitrocefin (NCF) as reporter substrate
[10] = target: T2, purified class A, C and D enzymes (β-lactamases) (Pseudomonas aeruginosa, UniProt P24735); test: biochemical; type: biochemical
T2 construct: rows headed: Ki (Pa-AmpC, NCF), uM; other: purified Pa-AmpC; nitrocefin (NCF) as reporter substrate
T2 sequence (P24735 whole entry): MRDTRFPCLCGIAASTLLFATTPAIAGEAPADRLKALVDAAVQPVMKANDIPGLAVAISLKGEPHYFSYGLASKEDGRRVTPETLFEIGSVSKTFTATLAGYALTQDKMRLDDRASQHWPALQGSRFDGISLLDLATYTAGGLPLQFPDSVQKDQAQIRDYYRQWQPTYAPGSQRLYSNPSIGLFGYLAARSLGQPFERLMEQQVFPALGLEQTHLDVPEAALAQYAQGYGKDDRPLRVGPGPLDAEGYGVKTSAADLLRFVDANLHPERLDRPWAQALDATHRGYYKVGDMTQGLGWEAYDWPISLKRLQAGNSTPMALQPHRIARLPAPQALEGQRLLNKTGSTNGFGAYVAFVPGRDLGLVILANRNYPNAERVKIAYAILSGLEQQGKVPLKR

[11] = system: ECL1002; test: Aztreonam potentiation (MPC@4), strain ECL1002; settings: minimum BLI concentration inhibiting growth with aztreonam 4 μg/mL; tested up to 40 μg/mL
[12] = system: ec308 SHV-5; test: Aztreonam potentiation (MPC@4), strain ec308 SHV-5; settings: minimum BLI concentration inhibiting growth with aztreonam 4 μg/mL; tested up to 40 μg/mL
[13] = system: ec302 TEM-10; test: Aztreonam potentiation (MPC@4), strain ec302 TEM-10; settings: minimum BLI concentration inhibiting growth with aztreonam 4 μg/mL; tested up to 40 μg/mL
[14] = system: KP1004 KPC-2; test: Aztreonam potentiation (MPC@4), strain KP1004 KPC-2; settings: minimum BLI concentration inhibiting growth with aztreonam 4 μg/mL; tested up to 40 μg/mL
[15] = system: EC1010 CMY-6; test: Aztreonam potentiation (MPC@4), strain EC1010 CMY-6; settings: minimum BLI concentration inhibiting growth with aztreonam 4 μg/mL; tested up to 40 μg/mL
[16] = system: KP1010 SHV-12; test: Aztreonam potentiation (MPC@4), strain KP1010 SHV-12; settings: minimum BLI concentration inhibiting growth with aztreonam 4 μg/mL; tested up to 40 μg/mL
[17] = system: KP1009 CTX-M-15; test: Aztreonam potentiation (MPC@4), strain KP1009 CTX-M-15; settings: minimum BLI concentration inhibiting growth with aztreonam 4 μg/mL; tested up to 40 μg/mL
[18] = system: KP1005 CTX-M-14; test: Tigemonam potentiation (MPC@4), strain KP1005 CTX-M-14; settings: minimum BLI concentration inhibiting growth with tigemonam 4 μg/mL; tested up to 40 μg/mL

SMILES	BPM MPC1 KP1004 KPC-2 [1]	BPM MPC1 OXA-48 KP1086 [2]	MPM MPC8 AB1053 OXA-72 [3]	MPM MPC8 AB1054 OXA-23 [4]	Ki [5] [nM]	Ki (P99, NCF), uM [6]	Ki (CTX-M-14, NCF), uM [7]	Ki (OXA-48, NCF), uM [8]	Ki (KPC-2, NCF), uM [9]	Ki [10] [nM]	AZT MPC4 ECL1002 [11]	AZT MPC4 SHV-5 ec308 [12]	AZT MPC4 TEM-10 ec302 [13]	AZT MPC4 KPC-2 KP1004 [14]	AZT MPC4 CMY-6 EC1010 [15]	AZT MPC4 SHV-12 KP1010 [16]	AZT MPC4 CTX-M-15 KP1009 [17]	TIG MPC4 CTX-M-14 KP1005 [18]
O=C([O-])c1c(OCC(F)F)ccc2c1O[B-](O)(O)CC2.[Na+].[Na+] [Compound 29, Disodium; 8-(2,2-difluoroethoxy)-4,4-dihydroxy-5-oxa-4-boranuidabicyclo[4.4.0]deca-1(6),7,9-triene-7-carboxylate]	X (X = MPC@1 ≤ 5 μg/mL)	X (X = MPC@1 ≤ 5 μg/mL)	X (X = MPC@1 ≤ 5 μg/mL)	Y (Y = 5 μg/mL < MPC@1 ≤ 20 μg/mL)	< 100	X (key: X = Ki ≤ 0.1 μM; Y = 0.1 μM < Ki ≤ 1 μM; Z = Ki > 1 μM)	X (X = Ki ≤ 0.1 μM)	X (X = Ki ≤ 0.1 μM)	X (X = Ki ≤ 0.1 μM)	< 100	X (X = MPC@4 ≤ 5 μg/mL)	X (X = MPC@4 ≤ 5 μg/mL)	Y (Y = 5 μg/mL < MPC@4 ≤ 20 μg/mL)	X (X = MPC@4 ≤ 5 μg/mL)	X (X = MPC@4 ≤ 5 μg/mL)	X (X = MPC@4 ≤ 5 μg/mL)	Y (Y = 5 μg/mL < MPC@4 ≤ 20 μg/mL)	Y (Y = 5 μg/mL < MPC@4 ≤ 20 μg/mL)
CS(=O)(=O)Nc1ccc2c(c1C(=O)[O-])O[B-](O)(O)CC2.[Na+].[Na+] [Compound 51, Disodium; 4,4-dihydroxy-8-(methanesulfonamido)-5-oxa-4-boranuidabicyclo[4.4.0]deca-1(6),7,9-triene-7-carboxylate]	X (X = MPC@1 ≤ 5 μg/mL)	X (X = MPC@1 ≤ 5 μg/mL)	Z (Z = MPC@1 > 20 μg/mL)	Z (Z = MPC@1 > 20 μg/mL)	< 100	X (key: X = Ki ≤ 0.1 μM; Y = 0.1 μM < Ki ≤ 1 μM; Z = Ki > 1 μM)	X (X = Ki ≤ 0.1 μM)	X (X = Ki ≤ 0.1 μM)	X (X = Ki ≤ 0.1 μM)	< 100	Z (Z = MPC@4 > 20 μg/mL)	X (X = MPC@4 ≤ 5 μg/mL)	X (X = MPC@4 ≤ 5 μg/mL)	Y (Y = 5 μg/mL < MPC@4 ≤ 20 μg/mL)	Y (Y = 5 μg/mL < MPC@4 ≤ 20 μg/mL)	X (X = MPC@4 ≤ 5 μg/mL)	Y (Y = 5 μg/mL < MPC@4 ≤ 20 μg/mL)	Z (Z = MPC@4 > 20 μg/mL)
